Data taken from US20230233569A1 (Revolution Medicines, Inc., priority 2020, published 2023).
Where two headings read alike, the source gives them in different places.

How the values were obtained:
AsPC-1 (K-Ras G12D) [1] = test: Potency assay: pERK; format: cell-based; details: Homo sapiens, ASPC1, read-out: pERK EC50
AsPC-1 (K-Ras G12D) [2] = test: CellTiter-Glo cell viability assay; format: cell-based; details: Homo sapiens, ASPC1, 120 h, read-out: AsPC-1 Cell Viability assay data IC50, K-Ras G12D, 5-day treatment
How it was run: (§1)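 Compounds dispensed directly onto seeded AsPC-1 (K-Ras G12D) or NCI-H358 (K-Ras G12C) cells; CellTiter-Glo luminescence read on day 5 after ~30 min equilibration to room temperature. Signal normalized to DMSO average (%) and fit by four-parameter logistic.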

NCI-H358 (K-Ras G12C) = test: CellTiter-Glo cell viability assay; format: cell-based; details: Homo sapiens, NCI-H358, 120 h, read-out: H358 Cell Viability assay data IC50, K-Ras G12C, 5-day treatment
How it was run: as §1

KRAS G12D = KRAS G12D (Homo sapiens, UniProt P01116+P62937, G12D); test: Ras-Raf disruption / FRET / MOA assay (BRAF RBD); format: biochemical; details: with Cyclophilin A
Sequence of KRAS G12D (P01116 1-169 isoform P01116-2 G12D limits assumed): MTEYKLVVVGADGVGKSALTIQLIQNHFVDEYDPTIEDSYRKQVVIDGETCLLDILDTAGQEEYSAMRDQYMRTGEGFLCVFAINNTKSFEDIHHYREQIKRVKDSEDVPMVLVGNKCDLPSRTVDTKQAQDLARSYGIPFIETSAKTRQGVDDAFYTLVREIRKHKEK
Sequence of KRAS G12D (P62937 whole entry): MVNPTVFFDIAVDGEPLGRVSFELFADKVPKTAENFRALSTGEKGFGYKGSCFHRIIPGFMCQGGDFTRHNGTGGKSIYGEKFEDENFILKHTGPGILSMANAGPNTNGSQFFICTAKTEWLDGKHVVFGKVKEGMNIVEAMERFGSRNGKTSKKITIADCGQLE
How it was run: (§2)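 TR-FRET in 25 mM HEPES pH 7.3, 100 mM NaCl, 5 mM MgCl2, 0.1% BSA, 0.002% Tween20 with 25 μM Cyclophilin A, 12.5 nM His6-Ras-GMPPNP, 50 nM GST-BRAF RBD; compound 10-point 3-fold series from 30 μM. After 3 h at 25 °C, Eu anti-His/APC anti-GST added for 1.5 h; IC50 from ratio decrease versus DMSO.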

KRAS G12S = KRAS G12S (Homo sapiens, UniProt P01116+P62937, G12S); test: Ras-Raf disruption / FRET / MOA assay (BRAF RBD); format: biochemical; details: with Cyclophilin A
Sequence of KRAS G12S (P01116 1-169 isoform P01116-2 G12S limits assumed): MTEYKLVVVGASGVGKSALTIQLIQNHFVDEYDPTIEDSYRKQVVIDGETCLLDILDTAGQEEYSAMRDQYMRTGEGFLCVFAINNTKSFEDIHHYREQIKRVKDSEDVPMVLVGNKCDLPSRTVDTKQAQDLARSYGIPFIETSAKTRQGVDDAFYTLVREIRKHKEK
Sequence of KRAS G12S (P62937 whole entry): as the sequence (P62937 whole entry) above
How it was run: as §2

KRAS G12V = KRAS G12V (Homo sapiens, UniProt P01116+P62937, G12V); test: Ras-Raf disruption / FRET / MOA assay (BRAF RBD); format: biochemical; details: with Cyclophilin A
Sequence of KRAS G12V (P01116 1-169 isoform P01116-2 G12V limits assumed): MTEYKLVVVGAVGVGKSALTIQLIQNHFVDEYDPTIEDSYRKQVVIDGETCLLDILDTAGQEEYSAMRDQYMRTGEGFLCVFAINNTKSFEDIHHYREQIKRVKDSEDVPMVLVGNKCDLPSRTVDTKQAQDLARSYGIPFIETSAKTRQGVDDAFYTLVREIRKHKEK
Sequence of KRAS G12V (P62937 whole entry): as the sequence (P62937 whole entry) above
How it was run: as §2

KRAS G13C = KRAS G13C (Homo sapiens, UniProt P01116+P62937, G13C); test: Ras-Raf disruption / FRET / MOA assay (BRAF RBD); format: biochemical; details: with Cyclophilin A
Sequence of KRAS G13C (P01116 1-169 isoform P01116-2 G13C limits assumed): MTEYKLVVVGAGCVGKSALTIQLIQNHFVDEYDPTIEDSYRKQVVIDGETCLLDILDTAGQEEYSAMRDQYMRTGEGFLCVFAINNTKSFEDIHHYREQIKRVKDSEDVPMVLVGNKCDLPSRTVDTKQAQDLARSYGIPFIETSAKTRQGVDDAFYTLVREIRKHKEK
Sequence of KRAS G13C (P62937 whole entry): as the sequence (P62937 whole entry) above
How it was run: as §2

KRAS G13D = KRAS G13D (Homo sapiens, UniProt P01116+P62937, G13D); test: Ras-Raf disruption / FRET / MOA assay (BRAF RBD); format: biochemical; details: with Cyclophilin A
Sequence of KRAS G13D (P01116 1-169 isoform P01116-2 G13D limits assumed): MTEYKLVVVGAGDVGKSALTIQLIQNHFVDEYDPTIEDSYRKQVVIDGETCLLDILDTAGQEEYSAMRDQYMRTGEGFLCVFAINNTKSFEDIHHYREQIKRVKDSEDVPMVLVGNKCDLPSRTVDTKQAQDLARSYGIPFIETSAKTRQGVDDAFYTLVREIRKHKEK
Sequence of KRAS G13D (P62937 whole entry): as the sequence (P62937 whole entry) above
How it was run: as §2

KRAS Q61H = KRAS Q61H (Homo sapiens, UniProt P01116+P62937, Q61H); test: Ras-Raf disruption / FRET / MOA assay (BRAF RBD); format: biochemical
Sequence of KRAS Q61H (P01116 1-169 isoform P01116-2 Q61H limits assumed): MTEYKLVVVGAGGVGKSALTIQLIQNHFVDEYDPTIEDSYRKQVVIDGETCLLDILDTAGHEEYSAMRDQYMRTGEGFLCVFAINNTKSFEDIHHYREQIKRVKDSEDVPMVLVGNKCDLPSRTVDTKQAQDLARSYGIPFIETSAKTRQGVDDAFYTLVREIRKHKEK
Sequence of KRAS Q61H (P62937 whole entry): as the sequence (P62937 whole entry) above
How it was run: as §2

KRAS WT = KRAS WT (Homo sapiens, UniProt P01116+P62937); test: Ras-Raf disruption / FRET / MOA assay (BRAF RBD); format: biochemical; details: with Cyclophilin A
Sequence of KRAS WT (P01116 1-169 isoform P01116-2 limits assumed): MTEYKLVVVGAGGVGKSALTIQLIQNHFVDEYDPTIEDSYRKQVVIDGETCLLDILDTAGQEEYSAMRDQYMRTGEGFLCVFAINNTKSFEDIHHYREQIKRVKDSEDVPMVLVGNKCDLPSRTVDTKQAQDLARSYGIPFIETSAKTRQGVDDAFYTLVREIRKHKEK
Sequence of KRAS WT (P62937 whole entry): as the sequence (P62937 whole entry) above
How it was run: as §2

NRAS G12C = NRAS G12C (Homo sapiens, UniProt P01111+P62937, G12C); test: Ras-Raf disruption / FRET / MOA assay (BRAF RBD); format: biochemical
Sequence of NRAS G12C (P01111 whole entry G12C): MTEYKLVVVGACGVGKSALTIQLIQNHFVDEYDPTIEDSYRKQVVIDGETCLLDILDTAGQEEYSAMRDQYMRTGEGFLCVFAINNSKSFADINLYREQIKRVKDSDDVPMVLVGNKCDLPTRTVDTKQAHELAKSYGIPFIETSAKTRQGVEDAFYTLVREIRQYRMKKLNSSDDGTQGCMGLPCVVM
Sequence of NRAS G12C (P62937 whole entry): as the sequence (P62937 whole entry) above
How it was run: as §2

NRAS Q61K = NRAS Q61K (Homo sapiens, UniProt P01111+P62937, Q61K); test: Ras-Raf disruption / FRET / MOA assay (BRAF RBD); format: biochemical
Sequence of NRAS Q61K (P01111 whole entry Q61K): as the sequence (P01111 whole entry G12C) above, with C12G, Q61K counted along it
Sequence of NRAS Q61K (P62937 whole entry): as the sequence (P62937 whole entry) above
How it was run: as §2

NRAS Q61R = NRAS Q61R (Homo sapiens, UniProt P01111+P62937, Q61R); test: Ras-Raf disruption / FRET / MOA assay (BRAF RBD); format: biochemical
Sequence of NRAS Q61R (P01111 whole entry Q61R): as the sequence (P01111 whole entry G12C) above, with C12G, Q61R counted along it
Sequence of NRAS Q61R (P62937 whole entry): as the sequence (P62937 whole entry) above
How it was run: as §2

NRAS WT = NRAS WT (Homo sapiens, UniProt P01111+P62937); test: Ras-Raf disruption / FRET / MOA assay (BRAF RBD); format: biochemical
Sequence of NRAS WT (P01111 whole entry): as the sequence (P01111 whole entry G12C) above, with C12G counted along it
Sequence of NRAS WT (P62937 whole entry): as the sequence (P62937 whole entry) above
How it was run: as §2

KRAS G12C = KRAS G12C (Homo sapiens, UniProt P01116+P62937, G12C); test: Ras-Raf disruption / FRET / MOA assay (BRAF RBD); format: biochemical; details: with Cyclophilin A
Sequence of KRAS G12C (P01116 1-169 isoform P01116-2 G12C limits assumed): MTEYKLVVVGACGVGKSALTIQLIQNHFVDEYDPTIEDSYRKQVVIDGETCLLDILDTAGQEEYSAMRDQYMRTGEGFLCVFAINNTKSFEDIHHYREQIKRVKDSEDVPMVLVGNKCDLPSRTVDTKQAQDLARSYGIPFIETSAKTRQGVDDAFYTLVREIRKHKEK
Sequence of KRAS G12C (P62937 whole entry): as the sequence (P62937 whole entry) above
How it was run: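 His6-K-Ras G12C-GMPPNP (12.5 nM), GST-BRAF RBD (50 nM) and tagless Cyclophilin A (25 μM) incubated 3 h at 25 °C with compound (10-point 3-fold series from 30 μM), pH 7.3 HEPES buffer. Anti-His Eu/anti-GST APC added for 1.5 h; decreased TR-FRET ratio vs DMSO gives IC50.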

[3] = KRAS G12D FRET data IC50, Ras-Raf disruption
[4] = KRAS G12S FRET data IC50, Ras-Raf disruption
[5] = KRAS G12V FRET data IC50, Ras-Raf disruption
[6] = KRAS G13C FRET data IC50, Ras-Raf disruption
[7] = KRAS G13D FRET data IC50, Ras-Raf disruption
[8] = KRAS WT FRET data IC50, Ras-Raf disruption
[9] = NRAS G12C FRET data IC50, NRAS G12C
[10] = KRAS G12C FRET data IC50, Ras-Raf disruption

| SMILES | EC50 (AsPC-1 (K-Ras G12D) [1]) [nM] | IC50 (AsPC-1 (K-Ras G12D) [2]) [nM] | IC50 (NCI-H358 (K-Ras G12C)) [nM] | IC50 (KRAS G12D; [3]) [nM] | IC50 (KRAS G12S; [4]) [nM] | IC50 (KRAS G12V; [5]) [nM] | IC50 (KRAS G13C; [6]) [nM] | IC50 (KRAS G13D; [7]) [nM] | IC50 (KRAS Q61H) [nM] | IC50 (KRAS WT; [8]) [nM] | IC50 (NRAS G12C; [9]) [nM] | IC50 (NRAS Q61K) [nM] | IC50 (NRAS Q61R) [nM] | IC50 (NRAS WT) [nM] | IC50 (KRAS G12C; [10]) [nM] | further results |
| --- | --- | --- | --- | --- | --- | --- | --- | --- | --- | --- | --- | --- | --- | --- | --- | --- |
| CCn1c(-c2cc(N3CCN(C)CC3)cnc2[C@H](C)OC)c2c3cc(ccc31)-c1cc(O)cc(c1)C[C@H](NC(=O)[C@H](C1CCCC1)N(C)C(=O)CN(C)C(=O)[C@H]1CN1)C(=O)N1CCC[C@H](N1)C(=O)OCC(C)(C)C2 [Example 209, (2R)—N-(2-(((1S)-1-cyclopentyl-2-(((6^3S,4S)-1^1-ethyl-2^5-hydroxy-1^2-(2-((S)-1-methoxyethyl)-5-(4-methylpiperazin-1-yl)pyridin-3-yl)-10,10-dimethyl-5,7-dioxo-6^1,6^2,6^3,6^4,6^5,6^6-hexahydro-1^1H-8-oxa-1(5,3)-indola-6(1,3)-pyridazina-2(1,3)-benzenacycloundecaphane-4-yl)amino)-2-oxoethyl)(methyl)amino)-2-oxoethyl)-N-methylaziridine-2-carboxamide] | < 5000 | < 10 | < 10 | 10 to 100 | 10 to 100 | 10 to 100 | < 10 | 10 to 100 | < 10 | 10 to 100 | < 10 | 100 to 1000 | 10 to 100 | 10 to 100 | < 10 |  |
| CCn1c(-c2cccnc2[C@H](C)OC)c2c3cc(ccc31)-c1cc(O)cc(c1)C[C@H](NC(=O)[C@H](C1CCCC1)N1CC[C@]3(CCN(C(=O)[C@@H]4N[C@@H]4C4CC4)C3)C1=O)C(=O)N1CCC[C@H](N1)C(=O)OCC(C)(C)C2 [Example 214, (2S)-2-cyclopentyl-2-((S)-7-((2R,3R)-3-cyclopropylaziridine-2-carbonyl)-1-oxo-2,7-diazaspiro[4.4]nonan-2-yl)-N-((6^3S,4S)-1^1-ethyl-2^5-hydroxy-1^2-(2-((S)-1-methoxyethyl)pyridin-3-yl)-10,10-dimethyl-5,7-dioxo-6^1,6^2,6^3,6^4,6^5,6^6-hexahydro-1^1H-8-oxa-1(5,3)-indola-6(1,3)-pyridazina-2(1,3)-benzenacycloundecaphane-4-yl)acetamide] | < 5000 | 10 to 100 | 10 to 100 |  |  |  |  |  |  |  |  |  |  |  |  | IC50 (KRAS G12D; Ras-Raf disruption, read-out: KRAS G12D FRET data IC50): < 10 nM; IC50 (KRAS G12S; Ras-Raf disruption, read-out: KRAS G12S FRET data IC50): 10 to 100 nM; IC50 (KRAS G12V; Ras-Raf disruption, read-out: KRAS G12V FRET data IC50): 10 to 100 nM; IC50 (KRAS G13C; Ras-Raf disruption, read-out: KRAS G13C FRET data IC50): 10 to 100 nM; IC50 (KRAS G13D; Ras-Raf disruption, read-out: KRAS G13D FRET data IC50): 100 to 1000 nM; IC50 (KRAS Q61H; KRAS Q61H, read-out: KRAS Q61H FRET data IC50): 10 to 100 nM; IC50 (KRAS WT; Ras-Raf disruption, read-out: KRAS WT FRET data IC50): 10 to 100 nM; IC50 (NRAS G12C; NRAS G12C, read-out: NRAS G12C FRET data IC50): 10 to 100 nM; IC50 (NRAS Q61K; NRAS Q61K, read-out: NRAS Q61K FRET data IC50): 100 to 1000 nM; IC50 (NRAS Q61R; NRAS Q61R, read-out: NRAS Q61R FRET data IC50): 100 to 1000 nM; IC50 (NRAS WT; NRAS WT, read-out: NRAS WT FRET data IC50): 10 to 100 nM; IC50 (KRAS G12C; Ras-Raf disruption, read-out: KRAS G12C FRET data IC50): 10 to 100 nM |
| CCn1c(-c2cccnc2[C@H](C)OC)c2c3cc(ccc31)-c1cc(O)cc(c1)C[C@H](NC(=O)[C@H](C(C)C)N(C)C(=O)CN(C)C(=O)[C@@]1(C)CN1)C(=O)N1CCC[C@H](N1)C(=O)OCC(C)(C)C2 [Example 256] | < 5000 | 100 to 1000 | 10 to 100 | 10 to 100 | 10 to 100 | 10 to 100 | < 10 | 10 to 100 | 10 to 100 | 10 to 100 | 10 to 100 | 100 to 1000 | 100 to 1000 | 10 to 100 | 10 to 100 |  |
| CCn1c(-c2cccnc2[C@H](C)OC)c2c3cc(ccc31)-c1cc(O)cc(c1)C[C@H](NC(=O)[C@H](C(C)C)N(C)C(=O)CN(C)C(=O)[C@]1(C)CN1)C(=O)N1CCC[C@H](N1)C(=O)OCC(C)(C)C2 [Example 257] | < 5000 | 100 to 1000 | 10 to 100 | 100 to 1000 | 10 to 100 | 10 to 100 | < 10 | 10 to 100 | 10 to 100 | 10 to 100 | 10 to 100 | 100 to 1000 | 100 to 1000 | 10 to 100 | 10 to 100 |  |
| CCn1c(-c2cccnc2[C@H](C)OC)c2c3cc(ccc31)-c1cc(O)cc(c1)C[C@H](NC(=O)[C@H](C(C)C)N(C)C(=O)CN(C)C(=O)[C@@H]1CN1CCCOC(C)=O)C(=O)N1CCC[C@H](N1)C(=O)OCC(C)(C)C2 (some centres unmarked) [Example 267] | < 5000 | 100 to 1000 | < 10 | 10 to 100 | 10 to 100 | 10 to 100 | 10 to 100 | 100 to 1000 | 10 to 100 | 10 to 100 | < 10 | 100 to 1000 | 100 to 1000 |  | < 10 |  |
